Assays:
Format in all cases: physicochemical
[1] = Particle sizing of micronised and conditioned glycopyrrolate batches, Example 7; details: micronised drug powder
Procedure: (§1) The effect of conditioning on micronised glycopyrrolate was investigated. An initial batch of glycopyrrolate ‘A’ was micronised at 9.8 bar with feed rate of 0.2 kg/hour. This material was then conditioned on a tray at 25° C./60% RH, with or without agitation/turning. Each of these powders was sized by Sympatec. The powders were then formulated using the method outlined in Example 4, as 20 μg dose in 25 mg powder with 0.15% magnesium stearate and loaded into gelatin capsules. The fine particle fraction was assessed by firing the capsules from a Miat MonoHaler device into a multi stage liquid impinger, using the method defined in the European Pharmacopoeia 4th Edition 2002. The fine particle fraction was defined here as the mass fraction smaller than 5 μm relative to the nominal dose.
as §1, with “A second” for “The effect of conditioning on micronised glycopyrrolate was investigated. An initial”, “‘B’” for “‘A’”, “0.3” for “0.2”, “powder” for “material was then conditioned on a tray at 25° C./60% RH, with or without agitation/turning. Each of these powders”, “powder was” for “powders were”
as §1, with “A third” for “The effect of conditioning on micronised glycopyrrolate was investigated. An initial”, “glycopyrtolate ‘C’” for “glycopyrrolate ‘A’”, “0.4” for “0.2”
as §1, with “A fourth” for “The effect of conditioning on micronised glycopyrrolate was investigated. An initial”, “‘D’” for “‘A’”, “8.8” for “9.8”, “0.4” for “0.2”, “powder” for “material was then conditioned on a tray at 25° C./60% RH, with or without agitation/turning. Each of these powders”, “powder was” for “powders were”
as §1, with “A fifth” for “The effect of conditioning on micronised glycopyrrolate was investigated. An initial”, “‘E’” for “‘A’”, “7.8” for “9.8”, “0.4” for “0.2”
(§2) Batches A1, C1 and E1 were not conditioned. Batches A2, C2 and E2 were conditioned at 25° C./60% RH and batches A3, C3 and E3 were conditioned at 25° C./60% RH with turning.

[2] = MSLI test of formulations made from micronisation trial batches, Example 7; details: 20 μg dose in 25 mg powder, 0.15% magnesium stearate, gelatin capsules
Procedure: as §1
as §1, with “A second” for “The effect of conditioning on micronised glycopyrrolate was investigated. An initial”, “‘B’” for “‘A’”, “0.3” for “0.2”, “powder” for “material was then conditioned on a tray at 25° C./60% RH, with or without agitation/turning. Each of these powders”, “powder was” for “powders were”
as §1, with “A third” for “The effect of conditioning on micronised glycopyrrolate was investigated. An initial”, “glycopyrtolate ‘C’” for “glycopyrrolate ‘A’”, “0.4” for “0.2”
as §1, with “A fourth” for “The effect of conditioning on micronised glycopyrrolate was investigated. An initial”, “‘D’” for “‘A’”, “8.8” for “9.8”, “0.4” for “0.2”, “powder” for “material was then conditioned on a tray at 25° C./60% RH, with or without agitation/turning. Each of these powders”, “powder was” for “powders were”
as §1, with “A fifth” for “The effect of conditioning on micronised glycopyrrolate was investigated. An initial”, “‘E’” for “‘A’”, “7.8” for “9.8”, “0.4” for “0.2”
as §2

[3] = Sympatec sizing of micronised glycopyrrolate batches, after micronisation and on storage; details: for Sympatec sizing d10 / Sympatec sizing d50 / Sympatec sizing d90: following micronisation
Text: (§3) Batches of micronised glycopyrrolate were obtained and, following sealed storage for several weeks, the physical changes of the material from fine cohesive powders to solid agglomerates were observed.
(§4) The following section summarises the tests conducted on reported batches of glycopyrrolate received following micronisation: […]

[4] = Loss on drying and water activity of micronised batches
Text: as §4

[5] = DVS (dynamic vapour sorption) moisture sorption analysis
Text: 100% amorphous glycopyrrolate was obtained by lyophilisation.

[6] = Observation of bulk powder after sealed storage; details: sealed storage for several weeks
Text: as §3, §4

Row | Structure (SMILES) | D10 [1] [μm] | D50 [1] [μm] | D90 [1] [μm] | % FPD ([2]; T = 0) [%] | MMAD ([2]; T = 0) [μm] | % FPD ([2]; T = 2 wks) [%] | MMAD ([2]; T = 2 wks) [μm] | Sympatec sizing d10 [3] [μm] | Sympatec sizing d50 [3] [μm] | Sympatec sizing d90 [3] [μm] | Loss on drying [4] [%] | DVS finding (crystalline or amorphous material) [5] | state of bulk powder on storage [6] | hygroscopicity ([5]; obtained by lyophilisation, confirmed by DVS at RH>0%) | Water activity [4] [% RH] | d50 on repeated particle sizing ([3]; on storage) [μm]
1 | C[N+]1(C)CCC(OC(=O)C(O)(c2ccccc2)C2CCCC2)C1.[Br-] (stereo not drawn) [Formulation C2] | 1.24 | 3.76 | 7.84 | 39.2 | 3.3 | 34.0 | 3.6 | – | – | – | – | – | – | – | – | –
2 | C[N+]1(C)CCC(OC(=O)C(O)(c2ccccc2)C2CCCC2)C1.[Br-] (stereo not drawn) [Batch A] | – | – | – | – | – | – | – | 0.7 | 1.8 | 3.6 | 0.7 | crystalline material | soft lumps | – | – | –
3 | C[N+]1(C)CCC(OC(=O)C(O)(c2ccccc2)C2CCCC2)C1.[Br-] (stereo not drawn) [Formulation C3] | 1.24 | 3.97 | 8.23 | 39.9 | 3.2 | 37.9 | 3.4 | – | – | – | – | – | – | – | – | –
4 | C[N+]1(C)CCC(OC(=O)C(O)(c2ccccc2)C2CCCC2)C1.[Br-] (stereo not drawn) [amorphous glycopyrrolate] | – | – | – | – | – | – | – | – | – | – | – | – | – | very hygroscopic | – | –
5 | C[N+]1(C)CCC(OC(=O)C(O)(c2ccccc2)C2CCCC2)C1.[Br-] (stereo not drawn) [Formulation E3] | 1.23 | 3.79 | 7.85 | 38.7 | 3.2 | 32.7 | 3.7 | – | – | – | – | – | – | – | – | –
6 | C[N+]1(C)CCC(OC(=O)C(O)(c2ccccc2)C2CCCC2)C1.[Br-] (stereo not drawn) [Formulation A1] | 0.81 | 1.95 | 3.68 | 34.7 | 2.8 | 30.5 | 3.2 | – | – | – | – | – | – | – | – | –
7 | C[N+]1(C)CCC(OC(=O)C(O)(c2ccccc2)C2CCCC2)C1.[Br-] (stereo not drawn) [Formulation C1] | 0.95 | 2.41 | 4.83 | 39.9 | 3.9 | 35.5 | 4.0 | – | – | – | – | – | – | – | – | –
8 | C[N+]1(C)CCC(OC(=O)C(O)(c2ccccc2)C2CCCC2)C1.[Br-] (stereo not drawn) [Formulation E2] | 1.28 | 3.61 | 7.08 | – | – | – | – | – | – | – | – | – | – | – | – | –

The remaining lines, values ahead:

Row | D10 [1] [μm] | D50 [1] [μm] | D90 [1] [μm] | % FPD ([2]; T = 0) [%] | MMAD ([2]; T = 0) [μm] | % FPD ([2]; T = 2 wks) [%] | MMAD ([2]; T = 2 wks) [μm] | Sympatec sizing d10 [3] [μm] | Sympatec sizing d50 [3] [μm] | Sympatec sizing d90 [3] [μm] | Loss on drying [4] [%] | DVS finding (crystalline or amorphous material) [5] | state of bulk powder on storage [6] | hygroscopicity ([5]; obtained by lyophilisation, confirmed by DVS at RH>0%) | Water activity [4] [% RH] | d50 on repeated particle sizing ([3]; on storage) [μm] | Structure (SMILES)
9 | – | – | – | – | – | – | – | 1.0 | 2.4 | 4.5 | 0.5 | – | only soft lumps | – | – | – | C[N+]1(C)CCC(OC(=O)C(O)(c2ccccc2)C2CCCC2)C1.[Br-] (stereo not drawn) [Remicronised Batch C]
10 | 1.24 | 4.03 | 9.78 | 34.5 | 2.8 | 31.5 | 3.1 | – | – | – | – | – | – | – | – | – | C[N+]1(C)CCC(OC(=O)C(O)(c2ccccc2)C2CCCC2)C1.[Br-] (stereo not drawn) [Formulation A3]
11 | 1.01 | 2.47 | 4.88 | 39.9 | 3.3 | 33.3 | 3.4 | – | – | – | – | – | – | – | – | – | C[N+]1(C)CCC(OC(=O)C(O)(c2ccccc2)C2CCCC2)C1.[Br-] (stereo not drawn) [Formulation E1]
12 | – | – | – | – | – | – | – | 1.0 | 2.4 | 4.8 | 0.6 | amorphous material was present | large hard lumps | – | 54 | – | C[N+]1(C)CCC(OC(=O)C(O)(c2ccccc2)C2CCCC2)C1.[Br-] (stereo not drawn) [Batch B]
13 | 1.22 | 3.89 | 10.02 | – | – | – | – | – | – | – | – | – | – | – | – | – | C[N+]1(C)CCC(OC(=O)C(O)(c2ccccc2)C2CCCC2)C1.[Br-] (stereo not drawn) [Formulation A2]
14 | – | – | – | – | – | – | – | 0.8 | 2.3 | 4.8 | 0.4 | amorphous material was present | large hard lumps | – | – | 51 | C[N+]1(C)CCC(OC(=O)C(O)(c2ccccc2)C2CCCC2)C1.[Br-] (stereo not drawn) [Batch C]

From patent US20080063719A1, “Pharmaceutical Compositions” (Vectura Limited, priority 2004, published 2008)
